Like-named read-outs stand apart in the source and are kept apart here.
Assays:
CDK2/CyclinE1 = target: T1, CDK2/CyclinE1 (Homo sapiens, UniProt P24941); assay: Assay for inhibition of CDK2/CyclinE1 (Caliper microfluidic kinase assay); assay type: biochemical; conditions: read-out: CDK2 IC50
T1 construct: purchased SignalChem C29-18G
Procedure, shortened: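 IC50 came from 4-parameter fits of substrate-to-product conversion, separated on a Caliper chip after an EDTA stop. Reactions ran 3 hours at room temperature with 100 μM ATP, 5 μM fluorescent FL-18 peptide and 5 nM enzyme in 100 mM HEPES pH 7.5, 10 mM MgCl2.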

T47D breast cancer cells = assay: Anti-proliferation assay in T47D cell (Cyquant, day 6); assay type: cell-based, human; conditions: Homo sapiens, T47D, anti-proliferation, T47D cells; read-out: T47D IC50
Procedure, shortened: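 A ten-point, 3-fold compound series (10 μM down to 0.51 nM) was applied to overnight-settled cells in 10% FBS RPMI 1640, and DNA content was read by CyQuant fluorescence 6 days later. An untreated plate read before dosing served as baseline for subtraction before IC50 fitting.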

[1] = tested on: phosphorylation of Retinoblastoma Protein (pRb Ser807/811 or Ser780) in T47D cells; assay: Inhibition of phosphorylation of retinoblastoma protein (pRb) in T47D cell (ELISA); assay type: cell-based, human; conditions: Homo sapiens, T47D, read-out: Phospho T47D Ser807 IC50, pRb Ser807 phosphorylation, T47D cells
Procedure, shortened: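 T47D cells in RPMI 1640 + 10% FBS, adhered overnight, then treated 24 h with 3-fold compound titrations (top concentration […]). Lysates assayed by sandwich ELISA for pRb Ser807/811 or Ser780 with HRP/TMB detection. IC50 from 4-parameter sigmoidal fit.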

CDK4/CyclinD1 = target: T2, CDK4/CyclinD1 (Homo sapiens, UniProt P11802); assay: Assay for inhibition of CDK4/CyclinD1 (Caliper microfluidic kinase assay); assay type: biochemical
T2 construct: purchased Thermofisher PR8064A
Procedure, shortened: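 IC50 was obtained by 4-parameter sigmoidal fitting after 1 nM CDK4/CyclinD1, 200 μM ATP and 1 μM FL-34 substrate reacted for 3 h at room temperature (pH 7.5 HEPES, 10 mM MgCl2). After EDTA quench, substrate and product were separated and detected on a Caliper microfluidic chip.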

CDK6/CyclinD3 = target: T3, CDK6/CyclinD3 (Homo sapiens, UniProt Q00534); assay: Assay for inhibition of CDK6/CyclinD3 (Caliper microfluidic kinase assay); assay type: biochemical
T3 construct: purchased Carna 04-107
Procedure, shortened: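 IC50s came from four-parameter dose-response fits of microfluidic substrate/product separation data. Reactions held 2 nM CDK6/CyclinD3, 300 μM ATP and 1 μM 5-FAM peptide FL-34 in pH 7.5 HEPES/MgCl2 buffer, ran 3 hours at room temperature, then were quenched with EDTA.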

T3 sequence (Q00534 whole entry): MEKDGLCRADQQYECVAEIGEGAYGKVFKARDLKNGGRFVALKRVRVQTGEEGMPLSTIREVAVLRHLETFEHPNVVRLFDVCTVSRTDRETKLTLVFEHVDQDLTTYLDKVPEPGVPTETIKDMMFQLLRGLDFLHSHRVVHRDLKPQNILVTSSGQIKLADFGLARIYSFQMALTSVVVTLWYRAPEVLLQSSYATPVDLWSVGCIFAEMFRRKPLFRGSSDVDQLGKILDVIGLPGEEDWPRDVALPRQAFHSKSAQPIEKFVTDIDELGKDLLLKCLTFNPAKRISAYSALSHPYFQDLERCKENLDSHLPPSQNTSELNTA
T3 sequence (P30281 whole entry partner): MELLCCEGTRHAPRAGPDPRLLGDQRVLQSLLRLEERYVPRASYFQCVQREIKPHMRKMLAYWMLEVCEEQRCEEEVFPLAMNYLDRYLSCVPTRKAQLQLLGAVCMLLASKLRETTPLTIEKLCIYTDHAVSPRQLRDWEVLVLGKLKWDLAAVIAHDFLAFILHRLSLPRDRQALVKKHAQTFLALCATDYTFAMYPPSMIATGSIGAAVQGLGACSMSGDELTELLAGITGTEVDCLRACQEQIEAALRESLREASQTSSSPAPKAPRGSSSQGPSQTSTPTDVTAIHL
T2 sequence (P11802 whole entry): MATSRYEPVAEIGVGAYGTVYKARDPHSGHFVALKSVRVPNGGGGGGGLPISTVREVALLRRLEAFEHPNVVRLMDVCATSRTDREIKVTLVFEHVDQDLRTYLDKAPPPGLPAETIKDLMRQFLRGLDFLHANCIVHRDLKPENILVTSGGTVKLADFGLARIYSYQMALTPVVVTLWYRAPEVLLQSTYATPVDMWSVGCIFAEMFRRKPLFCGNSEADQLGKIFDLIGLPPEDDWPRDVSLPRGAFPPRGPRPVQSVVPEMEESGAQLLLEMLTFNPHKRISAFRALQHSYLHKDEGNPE
T2 sequence (P24385 whole entry partner): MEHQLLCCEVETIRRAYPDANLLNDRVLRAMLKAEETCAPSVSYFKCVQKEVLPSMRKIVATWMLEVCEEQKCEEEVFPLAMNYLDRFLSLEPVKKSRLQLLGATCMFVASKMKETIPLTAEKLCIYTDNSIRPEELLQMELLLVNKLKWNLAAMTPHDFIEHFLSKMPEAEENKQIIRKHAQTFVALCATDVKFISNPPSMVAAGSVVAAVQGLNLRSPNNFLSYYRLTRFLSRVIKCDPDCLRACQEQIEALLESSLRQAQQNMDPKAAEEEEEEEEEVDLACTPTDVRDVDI

Row | SMILES | IC50 (CDK2/CyclinE1; CDK2/CyclinE1, 100 μM ATP) | IC50 (T47D breast cancer cells) | IC50 [1] | IC50 (CDK4/CyclinD1; CDK4/CyclinD1, 200 μM ATP) | IC50 (CDK6/CyclinD3; CDK6/CyclinD3, 300 μM ATP) | IC50 (CDK2/CyclinE1; CDK2/CyclinE1) | IC50 (CDK4/CyclinD1; CDK4/CyclinD1) | IC50 (CDK6/CyclinD3; CDK6/CyclinD3)
1 | CC(C)c1cnn2ccc(-c3nc(Nc4ccc(N5CCN(S(C)(=O)=O)CC5=O)cn4)ncc3F)cc12 [compound 51] | 10 to 100 nM | < 100 nM | < 100 nM | < 10 nM | 10 to 100 nM |  |  | 
2 | CC(C)c1cnn2ccc(-c3nc(Nc4ccc(N5CCN(CC(F)(F)F)CC5=O)cn4)ncc3F)cc12 [compound 53] | 10 to 100 nM | 100 to 500 nM | < 100 nM | < 10 nM | 10 to 100 nM |  |  | 
3 | CC(C)n1cnc2c(OC(F)F)nc(-c3ccnc(Nc4ccc(N5CCOCC5=O)cn4)n3)cc21 [compound 63] |  | 100 to 500 nM | < 100 nM |  |  | 100 to 1000 nM | < 10 nM | 10 to 100 nM
4 | COc1nc(-c2ccnc(Nc3ccc(CN4CCC(C#N)CC4)cn3)n2)cc2c1ncn2C(C)C [compound 68] |  | 100 to 500 nM | < 100 nM |  |  | > 1000 nM | < 10 nM | 10 to 100 nM
5 | COc1nc(-c2nc(Nc3ccc(N4CCC(N(C)C)CC4)cn3)ncc2F)cc2c1ncn2C(C)C [compound 70] |  | 100 to 500 nM | < 100 nM |  |  | > 1000 nM | < 10 nM | 10 to 100 nM
6 | COc1nc(-c2nc(Nc3ccc(N4CCOCCC4=O)cn3)ncc2F)cc2c1nc(C)n2C(C)C [compound 73] |  | 500 to 1000 nM | < 100 nM |  |  | > 1000 nM | < 10 nM | 10 to 100 nM
7 | COc1nc(-c2nc(Nc3ccc(N4CCCOCC4=O)cn3)ncc2F)cc2c1nc(C)n2C(C)C [compound 74] |  | 100 to 500 nM | 100 to 500 nM |  |  | > 1000 nM | < 10 nM | 10 to 100 nM
8 | COc1nc(-c2ccnc(Nc3ccc(N4CCOCC4=O)cn3)n2)cc2c1nc(C)n2C(C)C [compound 77] |  | 100 to 500 nM | < 100 nM |  |  | 100 to 1000 nM | < 10 nM | 10 to 100 nM
9 | COc1nc(-c2nc(Nc3ccc(N4CCOCC4=O)cn3)ncc2F)cc2c1ncn2C(C)C [compound 78] |  | < 100 nM | < 100 nM |  |  | 100 to 1000 nM | < 10 nM | 10 to 100 nM
10 | COc1nc(-c2ccnc(Nc3ccc(C(=O)N4CCC(NC5CC5)C4)cc3)n2)cc2c1ncn2C(C)C (stereo not shown) [compound 80] |  | 100 to 500 nM | < 100 nM |  |  | < 10 nM | < 10 nM | 10 to 100 nM
11 | COc1nc(-c2nc(Nc3ccc(N4CCOCC4=O)cn3)ncc2Cl)cc2c1nc(C)n2C(C)C [compound 83] |  | < 100 nM | < 100 nM |  |  | 100 to 1000 nM | < 10 nM | < 10 nM
12 | COc1nc(-c2ccnc(Nc3ccc(N4CCC(N(C)C)CC4=O)cn3)n2)cc2c1ncn2C(C)C (stereo not shown) [compound 91] |  | < 100 nM | < 100 nM |  |  | 100 to 1000 nM | < 10 nM | < 10 nM
13 | COc1nc(-c2nc(Nc3ccc(N4CCCCC4=O)cn3)ncc2F)cc2c1nc(C)n2C(C)C [compound 93] |  | 100 to 500 nM | 100 to 500 nM |  |  | > 1000 nM | < 10 nM | 10 to 100 nM
14 | COc1nc(-c2nc(Nc3ccc(N4CCC(N(C)C)CC4)cn3)ncc2F)cc2c1nc(C)n2C(C)C [compound 94] |  | < 100 nM | 100 to 500 nM |  |  | > 1000 nM | < 10 nM | 10 to 100 nM
15 | COc1nc(-c2nc(Nc3ccc(N4CCOCC4=O)cn3)ncc2F)cc2c1nc(C)n2C(C)C [compound 98] |  | < 100 nM | < 100 nM |  |  | > 1000 nM | < 10 nM | 10 to 100 nM
16 | COc1nc(-c2ccnc(Nc3ccc(N4CCC(N5CC(F)C5)CC4=O)cn3)n2)cc2c1ncn2C(C)C (stereo not shown) [compound 99] |  | < 100 nM | < 100 nM |  |  | 100 to 1000 nM | < 10 nM | 10 to 100 nM
17 | COc1nc(-c2nc(Nc3ccc(N4CCN(C)CC4)cn3)ncc2F)cc2c1nc(C)n2C(C)C [compound 103] |  | 100 to 500 nM | < 100 nM |  |  | > 1000 nM | 10 to 100 nM | 10 to 100 nM
18 | COc1nc(-c2ccnc(Nc3ccc(N4CC5CC4CN5)cn3)n2)cc2c1ncn2C(C)C (stereo not shown) [compound 109] | > 1000 nM | < 100 nM | < 100 nM | < 10 nM | 10 to 100 nM |  |  | 

Row | SMILES | IC50 (CDK2/CyclinE1; CDK2/CyclinE1, 100 μM ATP) | IC50 (T47D breast cancer cells) | IC50 [1] | IC50 (CDK4/CyclinD1; CDK4/CyclinD1, 200 μM ATP) | IC50 (CDK6/CyclinD3; CDK6/CyclinD3, 300 μM ATP) | IC50 (CDK2/CyclinE1; CDK2/CyclinE1) | IC50 (CDK4/CyclinD1; CDK4/CyclinD1) | IC50 (CDK6/CyclinD3; CDK6/CyclinD3)
19 | COc1nc(-c2nc(Nc3ccc(N4CCNCC4=O)cc3F)ncc2F)cc2c1ncn2C(C)C [compound 111] | 10 to 100 nM | 100 to 500 nM | 100 to 500 nM | < 10 nM | 10 to 100 nM |  |  | 
20 | COc1nc(-c2nc(Nc3ccc(N4CCNCCC4=O)cn3)ncc2F)cc2c1nc(C)n2C(C)C [compound 112] | > 1000 nM | < 100 nM | 100 to 500 nM | < 10 nM | 10 to 100 nM |  |  | 
21 | COc1nc(-c2nc(Nc3ccc(N4CCCNCC4=O)cn3)ncc2F)cc2c1nc(C)n2C(C)C [compound 113] | 100 to 1000 nM | 100 to 500 nM | 100 to 500 nM | < 10 nM | 10 to 100 nM |  |  | 
22 | COc1nc(-c2nc(Nc3ccc(N4CCNCC4=O)c(F)c3)ncc2F)cc2c1ncn2C(C)C [compound 115] | 10 to 100 nM | 100 to 500 nM | 100 to 500 nM | < 10 nM | 10 to 100 nM |  |  | 
23 | COc1nc(-c2ccnc(Nc3ccc(N4CCNCC4=O)c(F)c3)n2)cc2c1ncn2C(C)C [compound 116] | 10 to 100 nM | 100 to 500 nM | < 100 nM | < 10 nM | 10 to 100 nM |  |  | 
24 | COc1nc(-c2ccnc(Nc3ccc(N4CCC(C)(N)C4)cn3)n2)cc2c1ncn2C(C)C (stereo not shown) [compound 117] | > 1000 nM | 100 to 500 nM | 100 to 500 nM | 10 to 100 nM | 10 to 100 nM |  |  | 
25 | COc1nc(-c2ccnc(Nc3ccc(N4CCC(C)(N)CC4)cn3)n2)cc2c1ncn2C(C)C [compound 118] | > 1000 nM | 100 to 500 nM | < 100 nM | < 10 nM | 10 to 100 nM |  |  | 
26 | COc1nc(-c2ccnc(Nc3ccc(N4CCN(CCF)CC4=O)cn3)n2)cc2c1ncn2C(C)C [compound 122] | 100 to 1000 nM | < 100 nM | < 100 nM | < 10 nM | 10 to 100 nM |  |  | 
27 | COc1nc(-c2ccnc(Nc3ccc(N4CCN(CCF)CC4)cn3)n2)cc2c1ncn2C(C)C [compound 123] | > 1000 nM | 100 to 500 nM | 100 to 500 nM | < 10 nM | 10 to 100 nM |  |  | 
28 | COc1nc(-c2nc(Nc3ccc(N4CCN(CCF)CC4=O)cn3)ncc2F)cc2c1ncn2C(C)C [compound 126] | 100 to 1000 nM | 100 to 500 nM | 100 to 500 nM | < 10 nM | 10 to 100 nM |  |  | 
29 | COc1nc(-c2nc(Nc3ccc(N4CCN(C5COC5)CC4=O)cn3)ncc2F)cc2c1ncn2C(C)C [compound 129] | > 1000 nM | 100 to 500 nM | < 100 nM | < 10 nM | 10 to 100 nM |  |  | 
30 | COc1nc(-c2nc(Nc3ccc(N4CCN(C5COC5)CC4=O)cn3)ncc2F)cc2c1nc(C)n2C(C)C [compound 131] | > 1000 nM | 100 to 500 nM | 100 to 500 nM | < 10 nM | 10 to 100 nM |  |  | 
31 | CCN1CCN(c2ccc(Nc3ncc(F)c(-c4cc5c(ncn5C(C)C)c(OC)n4)n3)nc2)C(=O)C1 [compound 132] | > 1000 nM | 100 to 500 nM | < 100 nM | < 10 nM | 10 to 100 nM |  |  | 
32 | CC(C)c1cnn2ccc(-c3ccnc(Nc4ccc(N5CC(N(C)C)CCC5=O)cn4)n3)cc12 (stereo not shown) [compound 156] | 10 to 100 nM | 100 to 500 nM | < 100 nM | 10 to 100 nM | 100 to 1000 nM |  |  | 
33 | CC(C)c1cnn2ccc(-c3ccnc(Nc4ccc(N5CCCC(N(C)C)C5=O)cn4)n3)cc12 (stereo not shown) [compound 157] | 100 to 1000 nM | < 100 nM | < 100 nM | < 10 nM | 10 to 100 nM |  |  | 
34 | CC(C)c1cnn2ccc(-c3nc(Nc4ccc(N5CCC(N6CC(F)(F)C6)CC5=O)cn4)ncc3F)cc12 (stereo not shown) [compound 158] | 10 to 100 nM | < 100 nM | < 100 nM | < 10 nM | 10 to 100 nM |  |  | 
35 | CC(C)c1cnn2ccc(-c3nc(Nc4ccc(N5CCC(NC6CC(F)(F)C6)CC5=O)cn4)ncc3F)cc12 (stereo not shown) [compound 159] | 10 to 100 nM | < 100 nM | < 100 nM | < 10 nM | 10 to 100 nM |  |  | 
